The values that follow are results of earlier work, collected in patent US9095607B2, “Gel for topical application of clove essential oil with broad spectrum anti-inflammatory action and method of preparing same” (priority 2013, dated 2015).

Take `C/C1=C\CC/C(C)=C/CC(C)(C)/C=C/C1` [Alpha-humulene]: in the series on NF-kB, the “LPS-induced NF-kB activation” value is recorded as “inhibit”. For the same molecule, in the series with kinin B1 receptors, the “in vivo up-regulation of kinin B1 receptors” value is listed as “ability to prevent”. The LPS-induced neutrophil migration entry in the series on neutrophil migration is listed as “inhibit”.

`C=C1CC/C=C(\C)CC[C@@H]2[C@@H]1CC2(C)C` [Beta-caryophyllene]: in the series on NF-kB, the “LPS-induced NF-kB activation” value is listed as “inhibit”. Besides, the LPS-induced neutrophil migration result in the series on neutrophil migration is given as “inhibit”.
